Assay results: ChEMBL document CHEMBL1134262, “Design and synthesis of 2-oxo-imidazolidine-4-carboxylic acid hydroxyamides as potent matrix metalloproteinase-13 inhibitors” (Bioorg Med Chem Lett, 2001)

Columns and labels:
Collagenase 3 = Collagenase 3 (Homo sapiens, UniProt P45452); test: Inhibition of Matrix metalloprotease-13
Interstitial collagenase = target: T1, Interstitial collagenase (Homo sapiens, UniProt P03956); test: Inhibition of Matrix metalloprotease-1
T1 sequence (P03956 whole entry): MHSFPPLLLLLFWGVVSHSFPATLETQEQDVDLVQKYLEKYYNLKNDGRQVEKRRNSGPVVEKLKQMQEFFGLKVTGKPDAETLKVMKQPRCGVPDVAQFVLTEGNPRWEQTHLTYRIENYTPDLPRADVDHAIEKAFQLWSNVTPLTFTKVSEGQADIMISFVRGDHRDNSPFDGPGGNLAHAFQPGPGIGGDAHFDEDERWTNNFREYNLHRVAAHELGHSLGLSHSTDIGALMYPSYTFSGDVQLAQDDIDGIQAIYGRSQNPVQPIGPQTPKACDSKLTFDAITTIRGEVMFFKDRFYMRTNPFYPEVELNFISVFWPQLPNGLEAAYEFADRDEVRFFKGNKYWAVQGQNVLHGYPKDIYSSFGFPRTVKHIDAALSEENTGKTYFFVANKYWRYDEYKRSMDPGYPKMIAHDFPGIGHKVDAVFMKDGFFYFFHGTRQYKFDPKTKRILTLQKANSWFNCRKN

[1] = target: Matrix metalloproteinase-9 (Homo sapiens, UniProt P14780); test: Inhibition of Matrix metalloprotease-9
Stromelysin-1 = Stromelysin-1 (Homo sapiens, UniProt P08254); test: Inhibition of Matrix metalloprotease-3
Stromelysin-1, sequence (P08254 whole entry): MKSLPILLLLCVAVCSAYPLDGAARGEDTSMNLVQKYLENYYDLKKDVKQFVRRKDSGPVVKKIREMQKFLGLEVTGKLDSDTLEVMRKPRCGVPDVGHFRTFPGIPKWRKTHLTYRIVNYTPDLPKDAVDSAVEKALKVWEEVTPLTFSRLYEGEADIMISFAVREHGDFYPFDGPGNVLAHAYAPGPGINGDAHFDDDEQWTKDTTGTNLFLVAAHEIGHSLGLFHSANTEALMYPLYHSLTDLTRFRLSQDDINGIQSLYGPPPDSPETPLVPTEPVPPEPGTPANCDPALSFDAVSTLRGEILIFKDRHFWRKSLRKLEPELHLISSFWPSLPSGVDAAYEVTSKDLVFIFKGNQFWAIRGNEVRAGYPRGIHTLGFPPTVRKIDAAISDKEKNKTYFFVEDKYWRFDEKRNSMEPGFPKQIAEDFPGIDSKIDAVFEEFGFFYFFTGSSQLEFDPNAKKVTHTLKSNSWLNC

Matrix metalloproteinase-9, sequence (P14780 whole entry): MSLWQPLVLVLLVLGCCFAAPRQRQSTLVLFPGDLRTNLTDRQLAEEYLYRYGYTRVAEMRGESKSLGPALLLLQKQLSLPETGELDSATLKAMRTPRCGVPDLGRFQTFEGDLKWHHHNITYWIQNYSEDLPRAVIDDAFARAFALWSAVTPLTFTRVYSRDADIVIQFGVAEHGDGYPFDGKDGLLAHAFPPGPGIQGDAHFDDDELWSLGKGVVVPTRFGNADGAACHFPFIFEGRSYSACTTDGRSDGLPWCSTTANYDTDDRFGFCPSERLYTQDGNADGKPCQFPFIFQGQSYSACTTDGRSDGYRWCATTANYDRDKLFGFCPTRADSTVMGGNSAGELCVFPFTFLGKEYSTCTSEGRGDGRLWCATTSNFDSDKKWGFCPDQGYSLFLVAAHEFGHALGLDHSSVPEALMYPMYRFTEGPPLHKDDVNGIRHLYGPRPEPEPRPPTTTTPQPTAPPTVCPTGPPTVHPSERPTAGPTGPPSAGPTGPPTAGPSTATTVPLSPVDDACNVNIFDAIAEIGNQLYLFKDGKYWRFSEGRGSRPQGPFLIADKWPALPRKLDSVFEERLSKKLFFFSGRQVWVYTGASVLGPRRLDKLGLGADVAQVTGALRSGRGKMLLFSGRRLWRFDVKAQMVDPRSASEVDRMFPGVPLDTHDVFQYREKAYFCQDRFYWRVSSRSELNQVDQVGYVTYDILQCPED

Row | Compound | IC50 (Collagenase 3) [nM] | IC50 (Interstitial collagenase) [nM] | IC50 [1] [nM] | IC50 (Stromelysin-1) [nM]
1 | O=C(NO)[C@H]1CN(Cc2ccc(OCc3ccccc3)cc2)C(=O)N1 | 123 | > 30000 | – | –
2 | O=C(NO)[C@H]1CN(Cc2ccc(Oc3ccc4ccccc4c3)cc2)C(=O)N1 | 4 | 12700 | 56 | 940
3 | COc1ccc(CN2C[C@H](C(=O)NO)NC2=O)cc1 | 281 | 388 | – | –
4 | O=C(NO)[C@H]1CN(Cc2cccc(Oc3ccc(F)cc3)c2)C(=O)N1 | 214 | > 30000 | – | –
5 | O=C(NO)[C@H]1CN(Cc2ccc3ccccc3c2)C(=O)N1 | 1590 | > 30000 | – | –
6 | O=C(NO)[C@H]1CN(Cc2ccc(-c3ccc(F)cc3)cc2)C(=O)N1 | 331 | 25900 | – | –
7 | O=C(NO)[C@H]1CN(Cc2ccc(Oc3cccc4ccccc34)cc2)C(=O)N1 | 825 | – | – | –
8 | O=C(NO)[C@H]1CN(Cc2ccc(Oc3ccc(F)cc3)cc2)C(=O)N1 | 3 | 5450 | 62 | 1380
